Here are results for 17 compounds from US10034861B2 (priority 2016, dated 2018).

Each structure is given as a SMILES string. Read-outs that look alike come from different tables or passages of the source.

The target in assay [1] is PDE1B (Homo sapiens (Human), UniProt Q01064). The assay can be described thus: PDE1 inhibition assay (PDE1B). It is filed as biochemical. The note with it: 15 nM tritium labelled cAMP, 1 hr at room temperature, SPA beads. The text has this:
(§1) Table 1 lists the IC50 value for inhibition of PDE1 by the compounds of the invention. […] PDE1 assays are described in the Experimental Section.

The target of assay [2] is T1, PDE1C (Homo sapiens (Human), UniProt Q14123). The assay can be described thus: biochemical. The note with it: read-out: PDE1C, inhibition at 10 μM.
Assay [3] has as its target PDE1A (Homo sapiens (Human), UniProt P54750). The assay can be described thus: biochemical. Format: biochemical. The note with it: 15 nM tritium labelled cAMP, 1 hr at room temperature, SPA beads.
Description: as §1

Assay [4] deals with T1, PDE1C. The assay can be described thus: biochemical. It is filed as biochemical.
Description: as §1

Where [5] appears, read: 15 nM tritium labelled cAMP, 1 hr at room temperature, SPA beads.

PDE1A, sequence (P54750 whole entry): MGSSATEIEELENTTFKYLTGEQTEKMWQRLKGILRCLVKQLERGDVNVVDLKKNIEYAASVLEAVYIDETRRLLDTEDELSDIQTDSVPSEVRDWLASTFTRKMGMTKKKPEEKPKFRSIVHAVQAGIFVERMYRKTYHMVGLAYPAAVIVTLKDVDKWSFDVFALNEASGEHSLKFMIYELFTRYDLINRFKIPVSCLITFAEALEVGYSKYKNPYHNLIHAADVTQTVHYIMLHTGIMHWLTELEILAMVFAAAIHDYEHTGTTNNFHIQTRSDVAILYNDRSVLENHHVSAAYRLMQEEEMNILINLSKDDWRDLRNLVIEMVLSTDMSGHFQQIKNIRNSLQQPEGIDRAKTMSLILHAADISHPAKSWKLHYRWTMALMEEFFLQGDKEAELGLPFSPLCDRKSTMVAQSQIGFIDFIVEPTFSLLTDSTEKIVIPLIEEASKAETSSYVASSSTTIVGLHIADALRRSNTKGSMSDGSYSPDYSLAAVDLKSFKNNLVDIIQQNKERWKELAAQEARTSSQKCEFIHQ
PDE1B, sequence (Q01064 whole entry): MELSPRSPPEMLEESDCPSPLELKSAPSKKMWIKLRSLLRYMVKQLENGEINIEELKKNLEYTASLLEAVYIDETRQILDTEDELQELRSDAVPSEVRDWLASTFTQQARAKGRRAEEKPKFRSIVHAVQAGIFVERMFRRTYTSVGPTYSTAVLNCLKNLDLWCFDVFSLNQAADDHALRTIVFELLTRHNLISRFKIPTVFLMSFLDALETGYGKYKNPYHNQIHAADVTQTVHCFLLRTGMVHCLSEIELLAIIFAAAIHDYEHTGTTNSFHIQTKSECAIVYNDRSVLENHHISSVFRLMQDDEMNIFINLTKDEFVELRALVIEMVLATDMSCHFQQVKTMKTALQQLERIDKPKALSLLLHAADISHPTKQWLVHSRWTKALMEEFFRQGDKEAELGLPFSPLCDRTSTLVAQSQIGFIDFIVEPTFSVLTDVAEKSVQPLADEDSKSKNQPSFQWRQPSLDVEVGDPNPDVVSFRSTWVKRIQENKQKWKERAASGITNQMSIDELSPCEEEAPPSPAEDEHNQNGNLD
T1 sequence (Q14123 whole entry): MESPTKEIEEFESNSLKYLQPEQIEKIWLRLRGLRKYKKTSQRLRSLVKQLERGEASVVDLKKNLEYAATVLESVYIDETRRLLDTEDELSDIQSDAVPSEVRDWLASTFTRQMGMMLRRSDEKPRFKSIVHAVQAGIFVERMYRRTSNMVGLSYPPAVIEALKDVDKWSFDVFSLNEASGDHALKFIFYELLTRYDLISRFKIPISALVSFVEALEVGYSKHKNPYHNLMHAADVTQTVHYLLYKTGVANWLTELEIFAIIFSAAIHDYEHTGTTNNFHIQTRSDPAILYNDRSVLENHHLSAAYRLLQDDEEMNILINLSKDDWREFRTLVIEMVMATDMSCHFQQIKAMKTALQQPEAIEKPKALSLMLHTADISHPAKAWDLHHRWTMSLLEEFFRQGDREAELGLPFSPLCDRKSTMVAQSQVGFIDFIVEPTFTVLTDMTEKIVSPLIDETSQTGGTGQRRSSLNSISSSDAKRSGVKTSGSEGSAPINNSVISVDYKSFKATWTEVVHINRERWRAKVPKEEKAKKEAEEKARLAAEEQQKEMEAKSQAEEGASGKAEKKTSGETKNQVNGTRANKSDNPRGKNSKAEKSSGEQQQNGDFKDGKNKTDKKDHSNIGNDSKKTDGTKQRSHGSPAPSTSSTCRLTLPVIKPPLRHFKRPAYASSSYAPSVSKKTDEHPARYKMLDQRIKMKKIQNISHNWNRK

In the case of `CCOc1ncccc1-c1cc(NC(C)c2cnn(C)c2)c2c(cnn2C)n1` (racemic) [Example 15, 5-(2-ethoxypyridin-3-yl)-1-methyl-N-(1-(1-methyl-1H-pyrazol-4-yl)ethyl)-1H-pyrazolo[4,3-b]pyridin-7-amine], the IC50 turned out to be 200 nM in assay [1] (PDE1B, IC50 (nM)) and 820 nM in assay [3]. In assay [2], the inhibition at 10 µM was determined as 36%.

In the case of `CCOc1ncccc1-c1cc(NCc2cccc(C(F)(F)F)n2)c2c(n1)c(C)nn2C(C)C` [Example 107, 5-(2-ethoxy-3-pyridyl)-1-isopropyl-3-methyl-N-[[6-(trifluoromethyl)-2-pyridyl]methyl]pyrazolo[4,3-b]pyridin-7-amine], the IC50 in assay [1] (read-out: PDE1B, IC50) amounted to 5.6 nM; in assay [4] (setting [5]), 170 nM; in assay [3], 110 nM.

In the case of `CCOc1ncccc1-c1cc(CNc2cncc(OC)c2)c2c(n1)c(C)nn2C(C)C` [Example 157, N-[[5-(2-ethoxy-3-pyridyl)-1-isopropyl-3-methyl-pyrazolo[4,3-b]pyridin-7-yl]methyl]-5-methoxy-pyridin-3-amine], the IC50 stood at 14 nM in assay [1] (read-out: PDE1B, IC50); 77 nM in assay [4] (setting [5]); 34 nM in assay [3].

On to `CCOc1ncccc1-c1cc(NCc2cc[nH]n2)c2c(n1)c(C)nn2C(C)C` [Example 39, 5-(2-ethoxy-3-pyridyl)-1-isopropyl-3-methyl-N-(1H-pyrazol-3-ylmethyl)pyrazolo[4,3-b]pyridin-7-amine], for which the IC50 in assay [1] (read-out: PDE1B, IC50) is 0.43 nM; in assay [4] (setting [5]), 13 nM; in assay [3], 8.1 nM.

On to `CCOc1ncccc1CNc1cc(-c2cccnc2OCC)nc2c(C)nn(C(C)C)c12` [Example 191, 5-(2-ethoxy-3-pyridyl)-N-[(2-ethoxy-3-pyridyl)methyl]-1-isopropyl-3-methyl-pyrazolo[4,3-b]pyridin-7-amine], for which the concentration for half-maximal inhibition (IC50) amounted to 10 nM in assay [1] (read-out: PDE1B, IC50); 400 nM in assay [4] (setting [5]); 160 nM in assay [3].

In the case of `Cc1nn(C(C)C)c2c(NCc3cnn(C)c3)cc(-c3ccccc3)nc12` [Example 64, 1-isopropyl-3-methyl-N-[(1-methylpyrazol-4-yl)methyl]-5-phenyl-pyrazolo[4,3-b]pyridin-7-amine], the IC50 in assay [1] (read-out: PDE1B, IC50) turned out to be 12 nM; in assay [4] (setting [5]), 47 nM; in assay [3], 52 nM.

For the compound `CCOc1ncccc1-c1cc(NCc2nn[nH]n2)c2c(n1)c(C)nn2C(C)C` [Example 99, 5-(2-ethoxy-3-pyridyl)-1-isopropyl-3-methyl-N-(2H-tetrazol-5-ylmethyl)pyrazolo[4,3-b]pyridin-7-amine], the IC50 was found to be 0.31 nM in assay [1] (read-out: PDE1B, IC50); 3.8 nM in assay [4] (setting [5]); 0.73 nM in assay [3].

For the compound `CCOc1ncccc1-c1cc(NCc2ncc(C)o2)c2c(n1)c(C)nn2C(C)C` [Example 38, 5-(2-ethoxy-3-pyridyl)-1-isopropyl-3-methyl-N-[(5-methyloxazol-2-yl)methyl]pyrazolo[4,3-b]pyridin-7-amine], the IC50 in assay [1] (read-out: PDE1B, IC50) worked out at 0.24 nM; in assay [4] (setting [5]) it was 13 nM; in assay [3], 1.1 nM.

Turning to `CCOc1ncccc1-c1cc(NCc2ncn(C)n2)c2c(cnn2C(C)CC)n1` (single isomer, unassigned) [Example 141, 5-(2-ethoxy-3-pyridyl)-1-[1-methylpropyl]-N-[(1-methyl-1,2,4-triazol-3-yl)methyl]pyrazolo[4,3-b]pyridin-7-amine], the IC50 came to 2.2 nM in assay [1] (PDE1B, IC50 (nM)); 76 nM in assay [4]; 44 nM in assay [3].

For the compound `CCN(C)c1ncccc1-c1cc(NCc2ccc(OC)cc2)c2c(n1)c(C)nn2C(C)C` [Example 198, 5-(2-(ethyl(methyl)amino)pyridin-3-yl)-1-isopropyl-N-(4-methoxybenzyl)-3-methyl-1H-pyrazolo[4,3-b]pyridin-7-amine], the IC50 in assay [1] (read-out: PDE1B, IC50) came out at 240 nM; in assay [4] (setting [5]), 1000 nM; in assay [3] it was 1100 nM.

For `CCOc1ncccc1-c1cc(NCc2ncn(C)n2)c2c(n1)c(C)nn2C1COC1` [Example 163, 5-(2-ethoxy-3-pyridyl)-3-methyl-N-[(1-methyl-1,2,4-triazol-3-yl)methyl]-1-(oxetan-3-yl)pyrazolo[4,3-b]pyridin-7-amine], the IC50 in assay [1] (read-out: PDE1B, IC50) amounted to 14 nM; in assay [4] (setting [5]), 120 nM; in assay [3], 120 nM.

As to `CCOc1ncccc1-c1cc(NCc2nc[nH]n2)c2c(n1)c(C)nn2C(C)CC` (single isomer, unassigned) [Example 144, 5-(2-ethoxy-3-pyridyl)-3-methyl-1-[1-methylpropyl]-N-(1H-1,2,4-triazol-3-ylmethyl)pyrazolo[4,3-b]pyridin-7-amine], the IC50 in assay [1] (PDE1B, IC50 (nM)) worked out at 1.1 nM; in assay [4] (setting [5]), 23 nM; in assay [3], 14 nM.

Take `CCOc1ncccc1-c1cc(NCc2csc(C)n2)c2c(n1)c(C)nn2C1COC1` [Example 113, 5-(2-ethoxy-3-pyridyl)-3-methyl-N-[(2-methylthiazol-4-yl)methyl]-1-(oxetan-3-yl)pyrazolo[4,3-b]pyridin-7-amine]: the IC50 is 5.7 nM in assay [1] (read-out: PDE1B, IC50); 130 nM in assay [4] (setting [5]); 110 nM in assay [3].

On to `CCOc1ncccc1-c1cc(NCc2cc(OC)ncn2)c2c(n1)c(C)nn2C(C)C` [Example 179, 5-(2-ethoxy-3-pyridyl)-1-isopropyl-N-[(6-methoxypyrimidin-4-yl)methyl]-3-methyl-pyrazolo[4,3-b]pyridin-7-amine], for which the IC50 in assay [1] (read-out: PDE1B, IC50) was 0.51 nM; in assay [4] (setting [5]), 7 nM; in assay [3], 2.8 nM.

Take `CCOc1ncccc1-c1cc(NCc2cnn(C)c2)c2c(cnn2C)n1` [Example 16, 5-(2-ethoxypyridin-3-yl)-1-methyl-N-((1-methyl-1H-pyrazol-4-yl)methyl)-1H-pyrazolo[4,3-b]pyridin-7-amine]: the IC50 was 92 nM in assay [1] (read-out: PDE1B, IC50); 1800 nM in assay [4] (setting [5]); 670 nM in assay [3].

In the case of `CCOc1ncccc1-c1cc(NCc2csc(C)c2)c2c(n1)c(C)nn2C(C)C` [Example 34, 5-(2-ethoxy-3-pyridyl)-1-isopropyl-3-methyl-N-[(5-methyl-3-thienyl)methyl]pyrazolo[4,3-b]pyridin-7-amine], the IC50 in assay [1] (read-out: PDE1B, IC50) is 1.8 nM; in assay [4] (setting [5]), 21 nM; in assay [3], 8.1 nM.

Turning to `CCOc1ncccc1-c1cc(NCc2cc(C)cs2)c2c(n1)c(C)nn2C(C)C` [Example 35, 5-(2-ethoxy-3-pyridyl)-1-isopropyl-3-methyl-N-[(4-methyl-2-thienyl)methyl]pyrazolo[4,3-b]pyridin-7-amine], the IC50 came to 1.7 nM in assay [1] (read-out: PDE1B, IC50); 32 nM in assay [4] (setting [5]); 7.3 nM in assay [3].

By IC50 is commonly meant the midpoint of a concentration-inhibition curve. In general, inhibition refers to how much of the control response was suppressed.
